# Article PMC4949387 (Brain, 2015)
# Columns and labels:
# amyloid-β plaques = experiment: 18F-florbetapir PET scan in Alzheimer's disease patients; format: in vivo, human
# amyloid-β [1] = settings: ref Choi et al., 2009; cited from earlier work
# amyloid-β [2] = settings: ref Joshi et al., 2012, cited from earlier work
# amyloid-β plaque = settings: preliminary clinical data; ref Kung et al., 2012; cited from earlier work
# [3] = Alzheimer's disease (n = 3), PET 50–65 min post-injection
compound,measurement,setting,value
CNc1ccc(/C=C/c2ccc(OCCOCCOCCF)nc2)cc1 [18F-florbetapir],SUVR Anterior cingulate,amyloid-β plaques; [3],1.28 ± 0.05
same,SUVR Cortical average,amyloid-β plaques; [3],1.31 ± 0.10
same,SUVR Frontal cortex,amyloid-β plaques; [3],1.29 ± 0.13
same,SUVR Occipital cortex,amyloid-β plaques; [3],1.12 ± 0.25
same,SUVR Parietal cortex,amyloid-β plaques; [3],1.37 ± 0.21
same,SUVR Posterior cingulate,amyloid-β plaques; [3],1.48 ± 0.11
same,SUVR Subcortical white matter,amyloid-β plaques; [3],1.62 ± 0.16
same,SUVR Temporal cortex,amyloid-β plaques; [3],1.32 ± 0.15
same,"18F-florbetapir scan, visual interpretation",amyloid-β plaques; subject AD01,Positive
same,"18F-florbetapir scan, visual interpretation",amyloid-β plaques; subject AD02,Positive
same,"18F-florbetapir scan, visual interpretation",amyloid-β plaques; subject AD03,Positive
same,Kd,amyloid-β [1],3.7 nM
same,Mean cortical-to-cerebellar SUVR,amyloid-β [2]; Alzheimer's disease patients,1.42 ± 0.24
same,Greater SUVR in Alzheimer's disease patients relative to healthy controls,amyloid-β [2],42%
"CN(C)c1ccc(-c2cn3cc([123I])ccc3n2)cc1 [123I-IMPY, ^123 I-2-(4′-dimethylaminophenyl)-6-iodo-imidazo[1,2-a]pyridine]",Target-to-background ratio for amyloid-β plaque labelling,amyloid-β plaque,not as robust as that of PET tracers
